Data published in ChEMBL document CHEMBL1201862, “PubChem BioAssay data set” (2004).
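Exposure lasted 48 hours, with cells grown in 96-well plates and compounds tested at five concentrations. Abbreviation: GI50, concentration required for 50% inhibition of growth.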 Calls of active or inactive are those of the source. No stated cut-off is given here; in the data, active = GI50 up to about 1.1 µM and inactive = higher.

What was measured:
Assay in all cases: inhibition of tumour cell growth, NCI panel, 48 h
[1] = tested on: MDA-MB-435
[2] = tested on: MDA-N
[3] = tested on: BT-549
[4] = tested on: MCF7
[5] = tested on: MDA-MB-231
[6] = tested on: LXFL 529
[7] = tested on: HOP-18
[8] = tested on: DMS-114
[9] = tested on: RXF 631

Compound | GI50 [1] | GI50 [2] | GI50 [3] | GI50 [4] | GI50 [5] | GI50 [6] | GI50 [7] | GI50 [8] | GI50 [9]
Cc1cc(C)c(S(=O)(=O)N(CCCCN)OCCCN)c(C)c1 | 16.6 µM (inactive) | 16.4 µM (inactive) | 19.1 µM (inactive) | 17.7 µM (inactive) |  |  |  |  | 
C[C@]12CC[C@@H]3c4ccc(O)cc4CC[C@H]3[C@@H]1C/C(=C\c1ccncc1)C2=O | 4.46 µM (inactive) | 11.3 µM (inactive) |  | 12 µM (inactive) | 41.4 µM (inactive) |  |  |  | 
Nc1nc(N)c2cc(Sc3ccc4nc(N)nc(N)c4c3)ccc2n1 | 0.0522 µM (active) | > 100 µM (inactive) | > 100 µM (inactive) |  | > 100 µM (inactive) |  |  |  | 
CCCCCCCCC(O)c1ccc(/C=C\C(O)CCCC(=O)O)s1 (stereo not drawn) |  |  |  |  |  | > 100 µM (inactive) | > 100 µM (inactive) | > 100 µM (inactive) | 
C=C1c2c(cc3c(c2O)c(=O)c2ccccc2n3C)OC1(C)C |  |  |  |  |  | > 100 µM (inactive) | 9.79 µM (inactive) | 99.8 µM (inactive) | > 100 µM (inactive)
COc1cc(C2C(C(=O)O)=C(COC(C)=O)Oc3cc4c(cc32)OCO4)cc(OC)c1OC (stereo not drawn) |  |  |  |  |  |  | > 100 µM (inactive) | > 100 µM (inactive) | > 100 µM (inactive)
O=[N+]([O-])c1cccc2nc3ccccc3c(NCCNCCO)c12 | 0.011 µM (active) |  | 0.00542 µM (active) | 0.001 µM (active) | 0.017 µM (active) |  |  |  | 
O=C1CC(=O)c2c(O)cc(O)c(c2O)-c2c(ccc(O)c2O)C2=CC(=O)c3c(O)cc(O)c(c3O2)-c2c1ccc(O)c2O.O=C1CC2(O)Oc3c1c(O)cc(O)c3-c1c(ccc(O)c1O)-c1cc(=O)c3c(O)cc(O)c(c3o1)-c1c2ccc(O)c1O | > 50 µM (inactive) | > 50 µM (inactive) | > 50 µM (inactive) | > 50 µM (inactive) | > 50 µM (inactive) |  |  |  | 
Cc1cc2c(cc1C)N1Cc3c(ccc(C)c3C)N(C2)C1.Cc1cc2c(cc1C)N1Cc3cc(C)c(C)cc3N(C2)C1 |  |  |  |  |  | > 100 µM (inactive) | > 100 µM (inactive) | > 100 µM (inactive) | 
O=c1c(-c2ccc(O)cc2)coc2cc(O)cc(O)c12 [GENISTEIN] | > 100 µM (inactive) | > 100 µM (inactive) | 88.3 µM (inactive) | > 100 µM (inactive) |  |  |  |  | 
O=NN1CCN=C1c1ccc([N+](=O)[O-])cc1 |  |  |  |  |  | > 100 µM (inactive) |  |  | 
CC(=O)O[C@@H]1[C@H]2[C@@H](OC(=O)c3ccccc3)[C@@H](C)C[C@]2(O)[C@H](OC(C)=O)[C@@]2(C)[C@@H]3C[C@@](C)(OC(C)=O)C[C@@H](OC(C)=O)[C@@]3(OC(C)=O)C[C@@]12C | > 10 µM (inactive) | > 10 µM (inactive) | > 10 µM (inactive) | > 10 µM (inactive) | > 10 µM (inactive) |  |  |  | 
Fc1ccccc1C1CC(C(c2ccccc2)c2ccccc2)=Nc2ccccc2S1 (stereo not drawn) |  |  |  |  |  | 4.23 µM (inactive) | 16.2 µM (inactive) | 6.85 µM (inactive) | 8.04 µM (inactive)
O=C1CCCC(=O)N1CCc1c[nH]c2ccccc12 |  |  |  |  |  | > 100 µM (inactive) |  | > 100 µM (inactive) | > 100 µM (inactive)
COC(=O)N/N=C(/CC1(O)C(=O)Nc2ccc([N+](=O)[O-])cc21)c1ccccc1 (stereo not drawn) | 20.8 µM (inactive) | 39.4 µM (inactive) | 38.5 µM (inactive) | 1.19 µM (inactive) | 18.3 µM (inactive) | 36.8 µM (inactive) |  | 41.9 µM (inactive) | 
C/C(=N\Nc1nc2ccccc2[nH]1)c1cccc[n+]1[O-] | > 100 µM (inactive) | > 100 µM (inactive) | > 100 µM (inactive) | > 100 µM (inactive) | > 100 µM (inactive) |  |  |  | 
C=C(C)C(=O)[C@@]12C(=O)[C@@H](C)CC[C@H]1[C@H](C)C[C@@H]2C=C(C)C | 20.3 µM (inactive) | 24.1 µM (inactive) |  | 23.9 µM (inactive) | 21.9 µM (inactive) |  |  |  | 

Compound | GI50 [1] | GI50 [2] | GI50 [3] | GI50 [4] | GI50 [5] | GI50 [6] | GI50 [7] | GI50 [8] | GI50 [9]
CC1(O)OC(=O)C2=C1CCC1C2CCC2(C)C(O)CCC12 (stereo not drawn) | > 100 µM (inactive) | > 100 µM (inactive) | > 100 µM (inactive) | > 100 µM (inactive) | > 100 µM (inactive) |  |  |  | 
CC(NC(=O)C(C)NC(=O)C(N)CCP(C)(=O)O)C(=O)O (stereo not drawn) |  |  |  | > 100 µM (inactive) |  |  | > 100 µM (inactive) |  | 
Cc1cc(NC(=S)SCc2ccc(F)cc2)c([N+](=O)[O-])cc1C | 26.7 µM (inactive) |  | 28.2 µM (inactive) | 42.1 µM (inactive) | 14.6 µM (inactive) |  |  |  | 
COc1ccc(/C=C2\CCNC2=O)cc1 |  |  |  | > 100 µM (inactive) |  |  | > 100 µM (inactive) | > 100 µM (inactive) | 
Oc1ccc(-c2nc3cc(C(F)(F)F)ccc3s2)cc1 | 15.7 µM (inactive) | 17.7 µM (inactive) | 15.1 µM (inactive) | 10.2 µM (inactive) | 14.2 µM (inactive) |  |  |  | 
COc1ccc(C2C(=O)c3ccc(OC)cc3OC2c2cccnc2)cc1 (stereo not drawn) | > 100 µM (inactive) | > 100 µM (inactive) | 49.9 µM (inactive) | > 100 µM (inactive) | > 100 µM (inactive) |  |  |  | 
O=C(O)C1(C(O)c2ccccc2)SCCCS1 (stereo not drawn) | > 10 µM (inactive) | > 10 µM (inactive) | > 10 µM (inactive) | > 10 µM (inactive) | > 10 µM (inactive) |  |  |  | 
COC(=O)[C@@H]1O[C@]12[C@@H](CO[Si](C)(C)C(C)(C)C)O[C@@H](n1cc(C)c(=O)[nH]c1=O)[C@@H]2O[Si](C)(C)C(C)(C)C | 19.5 µM (inactive) | 12.9 µM (inactive) | 15.9 µM (inactive) |  | 19.9 µM (inactive) |  |  |  | 
COc1ccc2c3c1OC1C(F)C=CC4(O)C(C2)NCCC314 (stereo not drawn) | 1.52 µM (inactive) | 2.42 µM (inactive) | 1.93 µM (inactive) | 1.69 µM (inactive) | 3.27 µM (inactive) |  |  |  | 
COc1ccccc1Cc1nc(-c2ccccc2)nn(C2OC(COC(C)=O)C(OC(C)=O)C(OC(C)=O)C2OC(C)=O)c1=S (stereo not drawn) |  |  |  | 6.84 µM (inactive) |  |  | 27.9 µM (inactive) | 27.6 µM (inactive) | 
Cc1nc2c(sc(=S)n2-c2ccccc2)c(=O)[nH]1 |  |  |  |  |  | > 100 µM (inactive) | > 100 µM (inactive) |  | 
COc1ccccc1C1C(Cl)C(=O)N1n1cnc2ccccc2c1=O (stereo not drawn) |  |  |  |  |  | > 100 µM (inactive) | 39.6 µM (inactive) | > 100 µM (inactive) | 
O=C(NC(Cc1ccc(I)cc1)C(=O)O)c1ccc(I)cc1 (stereo not drawn) |  |  |  | > 50.4 µM (inactive) |  |  | > 100 µM (inactive) | 35.8 µM (inactive) | 
CCOC(=O)CCSS(=O)(=O)C(F)(F)F | > 100 µM (inactive) | > 100 µM (inactive) | > 100 µM (inactive) | > 100 µM (inactive) |  |  |  |  | 
Clc1ccc(C(SCc2ccccc2)SCc2ccccc2)cc1 |  | > 10 µM (inactive) |  | > 10 µM (inactive) | > 10 µM (inactive) |  |  |  | 
CC(=O)OCC1OC(N2C(=O)NC(=O)C3C=C4CCCCC4=CC32)C(OC(C)=O)C1OC(C)=O (stereo not drawn) | > 100 µM (inactive) | > 100 µM (inactive) | > 100 µM (inactive) | > 100 µM (inactive) | > 100 µM (inactive) |  |  |  | 
